The values below are quoted from earlier work in article PMC8843100, “Development of newly synthesised quinazolinone-based CDK2 inhibitors with potent efficacy against melanoma” (Journal of Enzyme Inhibition and Medicinal Chemistry, 2022).

Molecules are shown by their SMILES.

The subject of this data set is cyclin-dependent kinase2. Set-up: method as in PMID 11354366. To be noted: CDK2; cited from earlier work.

In the case of `CC(C)(C)Nc1nc(C(F)(F)F)nc2ccc(-c3cccc(N)c3)cc12` [DIN-234325], the IC50 was 600 ± 100 nM.
